What was measured:
[1] = target: T1, Ba/F3 cells transformed with human Tel-TrkA (Homo sapiens, UniProt P04629); assay: Proliferation of Ba/F3 cells transformed with human Tel-TrkA (Ba/F3 Tel-TrkA); format: cell-based; conditions: Table 1; 48 hours, Bright Glo luminescence; read-out: Ba/F3 Tel-TrkA
T1 construct: expressed in transfected cells; host or cells: Ba/F3 murine hematopoietic progenitor cells (luciferase expressing); the other entry of the earlier key: ETV6 (P41212, Transcription factor ETV6)
T1 sequence (P04629 510-796 limits assumed): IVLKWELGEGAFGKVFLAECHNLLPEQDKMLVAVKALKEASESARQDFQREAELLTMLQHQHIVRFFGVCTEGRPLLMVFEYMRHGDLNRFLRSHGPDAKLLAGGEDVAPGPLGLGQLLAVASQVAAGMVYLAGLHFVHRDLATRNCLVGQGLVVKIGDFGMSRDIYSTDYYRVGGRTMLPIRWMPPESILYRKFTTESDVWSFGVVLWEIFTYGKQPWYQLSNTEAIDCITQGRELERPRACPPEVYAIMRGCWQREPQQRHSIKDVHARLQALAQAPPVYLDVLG
Text: (§1) Compound dilutions were made in 384 well plates.
(§2) The emited luminiscence is quantified using ViewLux (PerkinElmer).

parental Ba/F3 cells = assay: Proliferation of parental (untransformed, wt) Ba/F3 cells (BAF3/WT); format: cell-based, murine; conditions: Mus musculus, Table 1, parental cells with IL3, 48 hours
Protocol: as §1
Compounds were tested for their ability to inhibit the proliferation of wt Ba/F3 cells and Ba/F3 cells transformed with constitutively expressed luciferase reporter and BCR-ABL or Tel-FMS or other Tel fusion kinases (EGFR, JAK2, ALK, BMX, FGFR3, FGFR4, FGR2, FLT1, FLT3, IGF1R, INSR, KDR, KIT, LCK, LYN, MEK, MET, PDGFRα, PDGFRβ, RET, RON, ROS, SRC, SYK, TIE and TYRO) or BRafV600E. Parental Ba/F3 cells were maintained in media containing recombinant mouse IL3 and the kinase transformed Ba/F3 cells were maintained in media without IL-3. 7.5 nl of compounds were spotted to each well of 1536-well assay plates by Liquid handling System Echo 555 (Labcyte). 700 cells were then plated into each well of the assay plates in 7 uL culture media per well and compounds were tested at 0.17 nM to 10 uM in 3-fold serial dilutions. The cells were then incubated for 48 hours at 37° C. 3 uL of Bright-Glo® (Promega) was added to each well and the plates were read using ViewLux (PerkinElmer).
as §2

SMILES | IC50 [1] | IC50 (parental Ba/F3 cells)
O=C(NCCN1CCOCC1)c1cnc2ccc(N3C[C@@H](F)C[C@@H]3c3cccc(F)c3)nn12 [X-113] | 9 nM | > 10000 nM
O=C(C=Cc1cccc(F)c1)c1cnc2ccc(N3CCC[C@@H]3c3cccc(F)c3)nn12 [X-126, (R)-3-(3-fluorophenyl)-1-(6-(2-(3-fluorophenyl)pyrrolidin-1-yl)imidazo[1,2-b]pyridazin-3-yl)prop-2-en-1-one] | 22 nM | 1090 nM
O=C(CCc1cccc(N2CCOCC2)n1)c1cnc2ccc(N3CCC[C@@H]3c3cccc(F)c3)nn12 [X-129] | 88 nM | > 9710 nM
CC(C)(Cc1ccc(F)cc1)NC(=O)c1cnc2ccc(N3CCC[C@@H]3c3cccc(F)c3)nn12 [X-41] | 527 nM | 9000 nM
CCOC(=O)c1cnc2ccc(N3C[C@@H](F)C[C@@H]3c3cccc(F)c3)nn12 [X-165, ethyl 6-((2R,4S)-4-fluoro-2-(3-fluorophenyl)pyrrolidin-1-yl)imidazo[1,2-b]pyridazine-3-carboxylate] | 4 nM | > 10000 nM
[2H][C@]1(c2cccc(F)c2)CCCN1c1ccc2ncc(C(N)=O)n2n1 [X-9] | 12 nM | > 10000 nM
NS(=O)(=O)CCNC(=O)c1cnc2ccc(N3C[C@@H](F)CC3c3cccc(F)c3)nn12 (some centres unmarked) [X-118] | 54 nM | > 10000 nM
CCOC(=O)c1cnc2ccc(N3C[C@H](F)C[C@H]3c3cccc(F)c3)nn12 [X-166, ethyl 6-((2S,4R)-4-fluoro-2-(3-fluorophenyl)pyrrolidin-1-yl)imidazo[1,2-b]pyridazine-3-carboxylate] | 314 nM | > 10000 nM
[2H]C1([2H])N(c2ccc3ncc(C(=O)OCC)n3n2)C([2H])(c2cccc(F)c2)C([2H])([2H])C1([2H])[2H] (centres unmarked) [X-163] | 79 nM | > 10000 nM
CCOC(=O)c1cnc2ccc(N3C[C@H](O)C[C@@H]3c3cccc(F)c3)nn12 [X-160, ethyl 6-((2R,4R)-2-(3-fluorophenyl)-4-hydroxypyrrolidin-1-yl)imidazo[1,2-b]pyridazine-3-carboxylate] | 73 nM | > 10000 nM
O=C(NCc1cccc(N2CCOCC2)n1)c1cnc2ccc(N3CCC[C@@H]3c3cccc(F)c3)nn12 [X-25] | 37 nM | > 8990 nM
O=C(Nc1cnc2ccc(N3CC(F)(F)C[C@@H]3c3cccc(F)c3)nn12)Oc1ccccc1 [X-238] | 445 nM | > 10000 nM
CCOC(=O)Nc1cnc2ccc(N3CCC[C@@H]3c3cccc(F)c3)nn12 [X-236, (R)-ethyl 6-(2-(3-fluorophenyl)pyrrolidin-1-yl)imidazo[1,2-b]pyridazin-3-ylcarbamate] | 545 nM | > 10000 nM
O=C(NCCc1ccc(F)cc1)c1cnc2ccc(N3CCC[C@@H]3c3cccc(F)c3)nn12 [X-37] | 137 nM | > 10000 nM
NC(=O)c1cnc2ccc(N3CC=C[C@@H]3c3cccc(F)c3)nn12 [X-15, (R)-6-(2-(3-fluorophenyl)-2,5-dihydro-1H-pyrrol-1-yl)imidazo[1,2-b]pyridazine-3-carboxamide] | 13 nM | 7260 nM
NC(=O)c1cnc2ccc(N3CCOCC3c3cccc(F)c3)nn12 (racemic) [X-16, 6-(3-(3-fluorophenyl)morpholino)imidazo[1,2-b]pyridazine-3-carboxamide] | 614 nM | > 10000 nM
[2H]C1([2H])C(c2cccc(F)c2)N(c2ccc3ncc(C(N)=O)n3n2)C([2H])([2H])C1([2H])[2H] (centres unmarked) [X-12] | 105 nM | > 10000 nM
NC(=O)c1cnc2ccc(N3C[C@@H](F)C[C@@H]3c3cccc(F)c3)nn12 [X-7, 6-((2R,4S)-4-fluoro-2-(3-fluorophenyl)pyrrolidin-1-yl)imidazo[1,2-b]pyridazine-3-carboxamide] | 5 nM | 3560 nM
O=C(NCc1cccc(F)c1)c1cnc2ccc(N3CCC[C@@H]3c3cccc(F)c3)nn12 [X-74] | 70 nM | > 10000 nM
O=C(COc1ccc(F)cc1)Nc1cnc2ccc(N3CCC[C@@H]3c3cccc(F)c3)nn12 [X-26] | 85 nM | > 10000 nM
O=C(NCCF)c1cnc2ccc(N3C[C@@H](F)C[C@@H]3c3cccc(F)c3)nn12 [X-112, 6-((2R,4S)-4-fluoro-2-(3-fluorophenyl)pyrrolidin-1-yl)-N-(2-fluoroethyl)imidazo[1,2-b]pyridazine-3-carboxamide] | – | 5450 nM

Continued, in another order:

IC50 [1] | SMILES | IC50 (parental Ba/F3 cells)
14 nM | O=C(NCC1CC1)c1cnc2ccc(N3CCC[C@@H]3c3cccc(F)c3)nn12 [X-90] | > 10000 nM
76 nM | C[C@H](O)C(=O)N1CCC(NC(=O)c2cnc3ccc(N4CCC[C@@H]4c4cccc(F)c4)nn23)CC1 [X-34] | > 10000 nM
731 nM | O=C(NCc1ccc(N2CC[C@@H](O)C2)nc1)c1cnc2ccc(N3CCC[C@@H]3c3cccc(F)c3)nn12 [X-99] | > 10000 nM
1 nM | CCONC(=O)c1cnc2ccc(N3C[C@@H](F)C[C@@H]3c3cccc(F)c3)nn12 [X-142, N-ethoxy-6-((2R,4S)-4-fluoro-2-(3-fluorophenyl)pyrrolidin-1-yl)imidazo[1,2-b]pyridazine-3-carboxamide] | 6690 nM
118 nM | O=C(NCC1CCCCC1)c1cnc2ccc(N3CCC[C@@H]3c3cccc(F)c3)nn12 [X-95] | > 10000 nM
36 nM | O=C(NC1CCSCC1)c1cnc2ccc(N3CCC[C@@H]3c3cccc(F)c3)nn12 [X-59] | > 10000 nM
92 nM | O=C(NCCC1CCCO1)c1cnc2ccc(N3CCC[C@@H]3c3cccc(F)c3)nn12 (some centres unmarked) [X-23] | > 10000 nM
17 nM | CCS(=O)(=O)N1CCC(NC(=O)c2cnc3ccc(N4CCC[C@@H]4c4cccc(F)c4)nn23)CC1 [X-27] | > 10000 nM
14 nM | CC(C)NC(=O)c1cnc2ccc(N3CCC[C@@H]3c3cccc(F)c3)nn12 [X-39] | > 10000 nM
60 nM | CC(C)(C)OC(=O)N1CCC(NC(=O)c2cnc3ccc(N4CCC[C@@H]4c4cccc(F)c4)nn23)CC1 [X-63] | > 10000 nM
127 nM | CC(C)(C)OC(=O)NCC(=O)Nc1cnc2ccc(N3CCC[C@@H]3c3cccc(F)c3)nn12 [X-192] | > 10000 nM
40 nM | O=C(NCC1CCCC1)c1cnc2ccc(N3CCC[C@@H]3c3cccc(F)c3)nn12 [X-109] | 7960 nM
388 nM | O=C(NC[C@H](O)CO)c1cnc2ccc(N3CCC[C@@H]3c3cccc(F)c3)nn12 [X-105] | > 10000 nM
112 nM | COC(=O)c1cnc2ccc(N3CCC[C@@H]3c3cccc(F)c3)nn12 [X-157] | > 10000 nM
31 nM | CS(=O)(=O)N1CC[C@H](NC(=O)c2cnc3ccc(N4CCC[C@@H]4c4cccc(F)c4)nn23)C1 [X-30] | > 10000 nM
3320 nM | CCNS(=O)(=O)c1cnc2ccc(N3CCC[C@@H]3c3cccc(F)c3)nn12 [X-237, (R)-N-ethyl-6-(2-(3-fluorophenyl)pyrrolidin-1-yl)imidazo[1,2-b]pyridazine-3-sulfonamide] | > 10000 nM
289 nM | O=C(NCCC1CCCCC1)c1cnc2ccc(N3CCC[C@@H]3c3cccc(F)c3)nn12 [X-91] | 6160 nM
22 nM | CC(C)(C)NC(=O)c1cnc2ccc(N3CCC[C@@H]3c3cccc(F)c3)nn12 [X-45] | > 10000 nM
53 nM | O=C(NC1CCS(=O)(=O)C1)c1cnc2ccc(N3CCC[C@@H]3c3cccc(F)c3)nn12 (some centres unmarked) [X-88] | > 10000 nM
40 nM | CCOC(=O)N1CCC(NC(=O)c2cnc3ccc(N4CCC[C@@H]4c4cccc(F)c4)nn23)CC1 [X-50] | > 10000 nM
207 nM | CC1(C)[C@H]2CC[C@@H](CNC(=O)c3cnc4ccc(N5CCC[C@@H]5c5cccc(F)c5)nn34)[C@@H]1C2 [X-110] | > 9760 nM
844 nM | O=C(c1cnc2ccc(N3CCC[C@@H]3c3cccc(F)c3)nn12)C(F)F [X-124] | > 10000 nM
33 nM | CC(C)(C)ONC(=O)c1cnc2ccc(N3CCC[C@@H]3c3cccc(F)c3)nn12 [X-145] | > 10000 nM
81 nM | CC(=O)N1CCC(NC(=O)c2cnc3ccc(N4CCC[C@@H]4c4cccc(F)c4)nn23)CC1 [X-67] | > 10000 nM
19 nM | CC(C)S(=O)(=O)N1CCC(NC(=O)c2cnc3ccc(N4CCC[C@@H]4c4cccc(F)c4)nn23)CC1 [X-32] | > 10000 nM
124 nM | CC(C)S(=O)(=O)N1CC[C@H](NC(=O)c2cnc3ccc(N4CCC[C@@H]4c4cccc(F)c4)nn23)C1 [X-31] | > 10000 nM
27 nM | NC(=O)c1cnc2ccc(N3CCCCC3c3cccc(F)c3)nn12 (centres unmarked) [X-18] | > 10000 nM
832 nM | CC(=O)N1CC(NC(=O)c2cnc3ccc(N4CCC[C@@H]4c4cccc(F)c4)nn23)C1 [X-64] | > 10000 nM
79 nM | NC(=O)c1cnc2ccc(N3CCCC[C@@H]3c3cccc(F)c3)nn12 [X-19] | > 10000 nM
76 nM | COC(=O)N[C@@H](C)CNC(=O)c1cnc2ccc(N3CCC[C@@H]3c3cccc(F)c3)nn12 [X-87] | > 10000 nM
